# In PMC12439480, “Dimeric CCK2R radiotheranostic tracers synergize with mTOR inhibition for enhanced tumor therapy” (Theranostics, 2025):
# Numbered stars: 1 amine (or outer) side, 2 acyl side, 3 side chain; on linkers, the order of the positions; unused ones are H or OH. Square brackets hold non-standard residues; d marks the D form. Side chains are listed from the residue outwards. Peptide text beside a SMILES is read from it. * marks the point of attachment. DOTA = O=C(O)CN1CCN(CC(=O)O)CCN(CC(=O)*)CCN(CC(=O)O)CC1; d(γGlu) = O=C(O)[C@@H](CCC(=O)[*:2])N[*:1]; 1Nal = N[C@@H](Cc1cccc2ccccc12)C(=O)O; NMeNle = CCCC[C@H](NC)C(=O)O; PEG4 = NCCOCCOCCOCCOCCC(=O)O
# Tests used:
# [1] = set-up: species or system KM mice; conditions: mouse, in vivo, iv
# Protocol: To evaluate the clearance rates of [^68Ga]Ga-DOTA-CCK2R-dimer and [^68Ga]Ga-DOTA-CCK-66 from the blood, a pharmacokinetic study was conducted in male KM mice (4-6 weeks old, 18-20 g, n = 5/group). Each mouse received 3.7 MBq of radiotracer via tail vein injection, corresponding to approximately 120 pmol of [^68Ga]Ga-DOTA-CCK2R-dimer or 210 pmol of [^68Ga]Ga-DOTA-CCK-66. Blood samples were collected from the tail vein into preweighed capillary tubes at 1, 3, 5, 10, 15, 30, 60, 90, 120, and 150 min post-injection. The radioactivity of the blood samples was measured using a γ-counter, and the percent of injected dose per gram of tissue (%ID/g) was calculated. Additionally, we assessed the in vivo stability of [^177Lu]Lu-DOTA-CCK2R-dimer. Mice were intravenously injected with 7.4 MBq (≈ 240 pmol) of [^177Lu]Lu-DOTA-CCK2R-dimer (dissolved in 200 μL of saline; n = 3/group). Urine samples were collected at 1, 4, and 24 hours post-injection, then diluted, filtered through a 0.22 μm membrane, and analyzed by radio-HPLC.
# All animal studies were approved by the Ethics Committee of Fudan University […]
# Shanghai Cancer Center (No. FUSCC-IACUC- S2023- 0003). […]
# Pharmacokinetics in Normal Mice
# F or the pharmacokinetics study, […] male KM mice (4 - 6 weeks old, weighing 18 - 20 g) were administered either [68Ga]Ga-D O TA -CCK2R-dimer or [68Ga]Ga-D O TA -CCK- 66 (3.7 MBq per mouse, n = 5/group) via tail vein injection.
# Blood samples were collected from the tail vein using pre-weighed capillary tubes at […]
# Radioactivity levels were measured using a gamma counter, with decay correction applied based on the injection time. The percentage of injected dose per gram of tissue (%ID/g) was calculated for each time point. […]
# AR42J tumor-bearing mice = assay: in vivo; set-up: species or system BALB/c nude mice; conditions: mouse, 1 h
# Protocol: To complement the imaging studies, biodistribution experiments were performed. AR42J tumor-bearing mice were intravenously injected with 3.7 MBq of [^68Ga]Ga-DOTA-CCK2R-dimer (≈ 120 pmol) or [^68Ga]Ga-DOTA-CCK-66 (≈ 210 pmol) (dissolved in 200 μL of saline; n = 3/group). The mice were sacrificed at 30, 60, and 120 min post-injection, and the tissues of interest were excised, weighed, and analyzed for radioactivity using a γ-counter. For blocking studies, a 400-fold excess of the lead compound was co-administered, and the mice were sacrificed at 1 h post-injection.
# All animal studies were approved by the Ethics Committee of Fudan University
# Shanghai Cancer Center (No. FUSCC-IACUC- S2023- 0003). Five-week-old female
# BALB/c nude mice were purchased from Shanghai SLAC Laboratory Animal
# Company. To establish cell-derived xenograft (CDX) models, 1 × 10⁶ AR42J cells
# (100 μL) were subcutaneously inoculated into the right shoulder of each mouse. […]
t1/2α [1] [min],Bladder uptake (AR42J tumor-bearing mice) [%ID/g],Kidney uptake (AR42J tumor-bearing mice) [%ID/g],Liver uptake (AR42J tumor-bearing mice) [%ID/g],Stomach uptake (AR42J tumor-bearing mice) [%ID/g],SMILES,half-life [1] [min]
0.67,1.15 ± 1.21,12.68 ± 3.71,0.96 ± 0.26,1.49 ± 0.64,"CCCC[C@@H](C(=O)N[C@@H](CC(=O)O)C(=O)N[C@@H](Cc1cccc2ccccc12)C(N)=O)N(C)C(=O)[C@H](Cc1c[nH]c2ccccc12)NC(=O)CCOCCOCCOCCOCCNC(=O)CC[C@@H](NC(=O)CN1CCN(CC(=O)O)CCN(CC(=O)O)CCN(CC(=O)O)CC1)C(=O)O [[68Ga]Ga-DOTA-CCK-66, metal not drawn, reference compound] ({DOTA-d(γGlu)-PEG4}-W[NMeNle]D[1Nal]-NH2)",11.8
,,,,,"CCCC[C@@H](C(=O)N[C@@H](CC(=O)O)C(=O)N[C@@H](Cc1cccc2ccccc12)C(N)=O)N(C)C(=O)[C@H](Cc1c[nH]c2ccccc12)NC(=O)CCOCCOCCOCCOCCNC(=O)CC[C@@H](NC(=O)CC[C@H](NC(=O)CN1CCN(CC(=O)O)CCN(CC(=O)O)CCN(CC(=O)O)CC1)C(=O)N[C@H](CCC(=O)NCCOCCOCCOCCOCCC(=O)N[C@@H](Cc1c[nH]c2ccccc12)C(=O)N(C)[C@@H](CCCC)C(=O)N[C@@H](CC(=O)O)C(=O)N[C@@H](Cc1cccc2ccccc12)C(N)=O)C(=O)O)C(=O)O [[68Ga]Ga-DOTA-CCK2R-dimer, metal not drawn] ({DOTA}-E([d(γGlu)-PEG4-Trp-NMeNle-Asp-1Nal-NH2])[d(γGlu)][PEG4]W[NMeNle]D[1Nal]-NH2)",46.6
